Among the test systems are 786-0 renal; HL-60(TB) leukemia; MALME-3M melanoma; NCI-H226 lung; NCI-H460 lung; OVCAR-3 ovarian; SN12C renal; U251 CNS.
Common to all, as to test: growth of human tumour cells (NCI), 48 h

The structures appear in SMILES notation.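 Compound exposure: 48 hours, 5 concentrations, 96-well plates. GI50: concentration for 50% inhibition of growth. The concentration for full growth arrest is given as TGI.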 A value given as a limit tells only on which side of the number the result lay.

On to `COC(=O)c1ccccc1CC1Cc2c(C)ccc(C)c2C1=O` (stereo unspecified), for which the TGI in the assay on 786-0 renal was > 100 µM; with HL-60(TB) leukemia, 55.6 µM; in the assay with MALME-3M melanoma, 57.5 µM; in the assay on NCI-H226 lung, > 100 µM; in the assay with NCI-H460 lung it was > 100 µM; in the assay on OVCAR-3 ovarian it was > 100 µM. Also, the TGI in the assay on SN12C renal and with U251 CNS was > 100 µM throughout.

As to `CN(C)C(=O)C(F)(F)C(c1ccccc1)C1C(=O)N(C)C(=O)N(C)C1=O` (stereo unspecified), the TGI in the assay on 786-0 renal, in the assay on NCI-H226 lung, in the assay on NCI-H460 lung, in the assay with OVCAR-3 ovarian and in the assay with U251 CNS was > 100 µM throughout.

`Cc1ccc(S(=O)(=O)OC[C@@]2(C)CC[C@]3(C)CC[C@]4(C)C(=C3C2)C=C[C@@H]2[C@@]3(C)CCCNC(C)(C)[C@@H]3CC[C@]24C)cc1`: the values for the GI50 in the assay on MALME-3M melanoma and in the assay with U251 CNS were 1.68 µM and 1.66 µM, respectively. Moreover, the figures for the TGI in the assay with MALME-3M melanoma and in the assay on U251 CNS were 3.26 µM and 3.17 µM, respectively.

Turning to `CCN(CC)c1c(C(C)(C)C)c(=O)n2ccsc2c1OC(C)=O`, the TGI with 786-0 renal is 34.1 µM; in the assay on HL-60(TB) leukemia, > 100 µM; in the assay with MALME-3M melanoma, 25.8 µM; in the assay with NCI-H226 lung it was 29.2 µM; in the assay on NCI-H460 lung it was 31.3 µM; with OVCAR-3 ovarian, 30.8 µM. Besides, the results for the TGI in the assay with SN12C renal and in the assay with U251 CNS were 32.6 µM and 30.8 µM, respectively.

Consider `O=c1cc(NNc2cccc3ccccc23)[nH]c(=O)[nH]1`, for which the TGI amounted to 18.6 µM in the assay with 786-0 renal; 7.99 µM in the assay on HL-60(TB) leukemia; 31.8 µM with MALME-3M melanoma; 27.9 µM in the assay on NCI-H226 lung; 43.5 µM in the assay with NCI-H460 lung; 27.3 µM in the assay on OVCAR-3 ovarian. In addition, the results for the TGI in the assay with SN12C renal and with U251 CNS were 29.9 µM and 28.3 µM, respectively.

In the case of `C[N+](C)(CCNc1ccc(NCC[N+](C)(C)Cc2ccc([N+](=O)[O-])cc2)c2c1C(=O)c1c(O)ccc(O)c1C2=O)Cc1ccc([N+](=O)[O-])cc1`, the TGI in the assay with 786-0 renal, in the assay with HL-60(TB) leukemia, with MALME-3M melanoma, with NCI-H460 lung, in the assay on OVCAR-3 ovarian and in the assay with SN12C renal was > 50 µM each time. The TGI in the assay with U251 CNS was > 50 µM.

Regarding `COC1OC2COC(=O)c3cc(O)c(O)c(O)c3-c3c(cc(O)c(O)c3O)C(=O)OC2C(O)C1O` (stereo unspecified), the TGI with 786-0 renal is > 100 µM; in the assay with MALME-3M melanoma, > 100 µM; with NCI-H226 lung it was > 100 µM; in the assay with NCI-H460 lung, > 100 µM; with OVCAR-3 ovarian, > 100 µM; with SN12C renal, 30.1 µM. In the assay with U251 CNS, the TGI is > 100 µM.

`CC(=O)c1csc2c1C(=O)c1ccccc1C2=O`: the TGI with 786-0 renal is > 22.3 µM; in the assay on HL-60(TB) leukemia it was 19.5 µM; in the assay on MALME-3M melanoma, 1.7 µM; with NCI-H226 lung, 3.42 µM; in the assay with NCI-H460 lung, 5 µM; in the assay with OVCAR-3 ovarian, > 100 µM. Besides, the TGI in the assay with SN12C renal turned out to be 5.86 µM; in the assay on U251 CNS, 13.9 µM.

On to `CC1=NN(c2nc(N)nc(CO)n2)C(C)(C)C1`, for which the TGI in the assay with 786-0 renal, in the assay with HL-60(TB) leukemia, with NCI-H226 lung, in the assay on OVCAR-3 ovarian, with SN12C renal and with U251 CNS was > 100 µM each time.

Regarding `CN(C)C(=O)C(F)(F)C(c1ccccc1Br)C1C(=O)N(C)C(=O)N(C)C1=O` (stereo unspecified), the TGI with 786-0 renal, with MALME-3M melanoma, with NCI-H226 lung, in the assay with NCI-H460 lung, in the assay with OVCAR-3 ovarian and in the assay with U251 CNS was > 100 µM throughout.

For `O=C1Cc2cc3ccccc3nc2-c2ccccc2N1`, the TGI with 786-0 renal, in the assay on HL-60(TB) leukemia, with MALME-3M melanoma, in the assay on NCI-H226 lung, with NCI-H460 lung and with OVCAR-3 ovarian was > 100 µM throughout. In addition, the TGI with SN12C renal and with U251 CNS was > 100 µM each time.

With `O=C(/C=C/c1ccc(OCc2ccccc2)cc1)NCc1ccc(C(=O)NCCc2ccccc2)cc1`, the TGI in the assay with 786-0 renal, in the assay on MALME-3M melanoma, in the assay on NCI-H226 lung, in the assay on NCI-H460 lung, in the assay with OVCAR-3 ovarian and in the assay with SN12C renal was > 100 µM each time. In the assay on U251 CNS, the TGI is > 100 µM.

`CCOC(=O)C(C)c1nc2cc(F)c(F)cc2[nH]c1=O` (stereo unspecified): the TGI with 786-0 renal, in the assay with HL-60(TB) leukemia, with MALME-3M melanoma, in the assay with NCI-H226 lung, in the assay with NCI-H460 lung and with OVCAR-3 ovarian was > 100 µM throughout. For the same compound, the TGI in the assay with SN12C renal and with U251 CNS was > 100 µM each time.

In the case of `CCCCCCCCCCCC1N=C(N)N=C(N)N1c1cccc(Br)c1` (stereo unspecified), the GI50 was 1.77 µM with MALME-3M melanoma, 0.0779 µM with NCI-H460 lung and 0.631 µM in the assay with U251 CNS. The TGI in the assay on MALME-3M melanoma came to 3.38 µM; in the assay with NCI-H460 lung, 1.65 µM; in the assay on U251 CNS, 1.98 µM.

For the origin of these results see PubChem BioAssay (NCI).
